Data on nine compounds can be found in the supplement of paper PMC10883282.

SMILES strings stand for the structures. ± gives the standard deviation of the averaged measurements.

This test deals with SK-ES-1. In words: relative viability vs DMSO control (72 h) (fraction); higher = more viable cells. An outline of the steps: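 A 5 µM positive control and 0.1% DMSO vehicle ran alongside sarcoma cell lines seeded in 384-well plates to reach 80–90% confluence. Serially diluted compound, 2.5 µl from source plates of 10 mM to 0.0002 mM, was added after 24 h, and the plates were held 72 h at 37 °C, 5% CO2. Relative viability was worked out from ATPLite readings as percent growth averaged over up to triplicate wells. The values were rescaled so that 1 is full and 0 is none.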

With `Cc1ccc(F)c(NC(=O)Nc2ccc(-c3cccc4[nH]nc(N)c34)cc2)c1` [Linifanib], the relative viability reads like this: (0.00017 µM) 1.07 ± 0.098; (0.00051 µM) 1.07 ± 0.044; (0.00152 µM) 1.08 ± 0.043; (0.00457 µM) 1.11 ± 0.025; (0.01372 µM) 1.09 ± 0.052; (0.04115 µM) 1.04 ± 0.028. For the same compound, the relative viability reads like this: (0.1235 µM) 1.04 ± 0.038; (0.3704 µM) 1.05 ± 0.039; (1.111 µM) 1.01 ± 0.032; (3.333 µM) 0.879 ± 0.17; (10 µM) 1.03 ± 0.034.
`CC(C)N1CCN(Cc2cnc(-c3cc(-c4cccc5[nH]ccc45)cc4[nH]ncc34)o2)CC1` [Nemiralisib] had a relative viability (0.00017 µM) of 0.934 ± 0.039; a relative viability (0.00051 µM) of 0.915 ± 0.03; a relative viability (0.00152 µM) of 0.945 ± 0.034; a relative viability (0.00457 µM) of 0.932 ± 0.035; a relative viability (0.01372 µM) of 0.985 ± 0.068; a relative viability (0.04115 µM) of 0.957 ± 0.041. Besides, the relative viability runs as follows: (0.1235 µM) 0.977 ± 0.026; (0.3704 µM) 0.961 ± 0.055; (1.111 µM) 0.931 ± 0.04; (3.333 µM) 0.76 ± 0.027; (10 µM) 0.114 ± 0.053.
For the compound `COCc1c(-c2cc3cc(C)cc(OC)c3s2)c2c(N)ncnn2c1CN1CCNC(=O)C1` [Rogaratinib], the relative viability reads like this: (0.00017 µM) 1.04 ± 0.043; (0.00051 µM) 1.03 ± 0.044; (0.00152 µM) 1.02 ± 0.035; (0.00457 µM) 1.03 ± 0.049; (0.01372 µM) 1.07 ± 0.045; (0.04115 µM) 1.05 ± 0.065. Also, the relative viability by setting is: (0.1235 µM) 0.982 ± 0.062; (0.3704 µM) 0.97 ± 0.011; (1.111 µM) 0.848 ± 0.075; (3.333 µM) 0.659 ± 0.027; (10 µM) 0.463 ± 0.03.
For the compound `Cc1cc(Nc2ncnc3ccc(NC4=NC(C)(C)CO4)cc23)ccc1Oc1ccn2ncnc2c1` [Tucatinib], the relative viability (0.00017 µM) turned out to be 1.07 ± 0.025; the relative viability (0.00051 µM) was determined as 1.04 ± 0.043; the relative viability (0.00152 µM) is 1.06 ± 0.039; the relative viability (0.00457 µM) was 1.1 ± 0.022; the relative viability (0.01372 µM) was determined as 1.13 ± 0.064; the relative viability (0.04115 µM) was 1.06 ± 0.059. Besides, the relative viability was determined as 1.08 ± 0.079 (0.1235 µM); 1.06 ± 0.019 (0.3704 µM); 1.01 ± 0.011 (1.111 µM); 0.98 ± 0.023 (3.333 µM); 0.883 ± 0.017 (10 µM).
Regarding `O=C(Nc1cnn2ccc(N3CCC[C@@H]3c3cc(F)ccc3F)nc12)N1CC[C@H](O)C1` [Larotrectinib], the relative viability reads like this: (0.00017 µM) 1.01 ± 0.018; (0.00051 µM) 1.04 ± 0.048; (0.00152 µM) 1.04 ± 0.026; (0.00457 µM) 1.04 ± 0.064; (0.01372 µM) 1.04 ± 0.038; (0.04115 µM) 1.03 ± 0.053. The relative viability came to 1 ± 0.02 (0.1235 µM); 1.02 ± 0.062 (0.3704 µM); 1 ± 0.03 (1.111 µM); 0.969 ± 0.034 (3.333 µM); 1.03 ± 0.058 (10 µM).
Take `CN1CCC(COc2cnc(-c3cccc(Cn4nc(-c5cccc(C#N)c5)ccc4=O)c3)nc2)CC1` [Tepotinib]: the relative viability was 0.997 ± 0.018 (0.00017 µM); 1.08 ± 0.037 (0.00051 µM); 1.06 ± 0.026 (0.00152 µM); 1.06 ± 0.023 (0.00457 µM); 1.02 ± 0.018 (0.01372 µM); 1.06 ± 0.028 (0.04115 µM). For the same compound, the relative viability reads like this: (0.1235 µM) 1.003 ± 0.0064; (0.3704 µM) 1 ± 0.037; (1.111 µM) 0.974 ± 0.045; (3.333 µM) 0.98 ± 0.038; (10 µM) 0.718 ± 0.031.
For the compound `C[C@@H]1CCN(C(=O)CC#N)C[C@@H]1N(C)c1ncnc2[nH]ccc12` [Tofacitinib], the relative viability was determined as 1 ± 0.032 (0.00017 µM); 1.05 ± 0.059 (0.00051 µM); 1.01 ± 0.023 (0.00152 µM); 1.03 ± 0.049 (0.00457 µM); 1.04 ± 0.046 (0.01372 µM); 1.01 ± 0.056 (0.04115 µM). Moreover, the relative viability was found to be 0.997 ± 0.056 (0.1235 µM); 1.01 ± 0.049 (0.3704 µM); 0.985 ± 0.081 (1.111 µM); 1.03 ± 0.056 (3.333 µM); 1.02 ± 0.06 (10 µM).
In the case of `N#CC[C@H](C1CCCC1)n1cc(-c2ncnc3[nH]ccc23)cn1` [Ruxolitinib], the relative viability reads like this: (0.00017 µM) 0.926 ± 0.028; (0.00051 µM) 0.974 ± 0.027; (0.00152 µM) 0.96 ± 0.038; (0.00457 µM) 0.9617 ± 0.0031; (0.01372 µM) 0.942 ± 0.039; (0.04115 µM) 0.95 ± 0.049. The relative viability by setting is: (0.1235 µM) 0.933 ± 0.024; (0.3704 µM) 0.959 ± 0.044; (1.111 µM) 0.932 ± 0.025; (3.333 µM) 0.897 ± 0.05; (10 µM) 0.812 ± 0.04.
On to `C=CC(=O)N1CCC[C@@H](n2nc(-c3ccc(Oc4ccccc4)cc3)c3c(N)ncnc32)C1` [Ibrutinib], for which the relative viability is 1.008 ± 0.0073 (0.00017 µM); 1.02 ± 0.054 (0.00051 µM); 1.02 ± 0.026 (0.00152 µM); 1.02 ± 0.054 (0.00457 µM); 1 ± 0.085 (0.01372 µM); 1.04 ± 0.03 (0.04115 µM). Besides, the relative viability (0.1235 µM) was determined as 1 ± 0.011; the relative viability (0.3704 µM) was determined as 1.06 ± 0.036; the relative viability (1.111 µM) was 1.057 ± 0.0088; the relative viability (3.333 µM) was 1.02 ± 0.021; the relative viability (10 µM) was determined as 0.743 ± 0.043.
